Experimental data taken from patent US20020111274A1, “1-alkyl-3-[1-(substituted phenyl) benzotriazol-6-yl] uracils” (BASF Aktiengesellschaft, priority 2000, published 2002).

Legend:
Design in all cases: scale not given here
[1] = system: SETVI Foxtail, Green; test: Preemergence herbicidal evaluation, SETVI; format: in vivo, Setaria viridis, (L.) Beau; conditions: preemergence
How it was run: (§1)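 Seeds mixed with potting soil in cups, then sprayed preemergence with aqueous acetone test solution at about 0.013 to 0.800 kg per hectare equivalent. Cups kept under standard greenhouse care; plants rated on a visual scale four to five weeks after treatment.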

[2] = system: GALAP Galium; test: Postemergence herbicidal evaluation, GALAP; format: in vivo, Galium aparine; conditions: postemergence spray, rated about two-three weeks after treatment
How it was run: (§2)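 Seedlings grown about two weeks were sprayed with compound in 80/20 acetone/water containing 1.0% methylated seed oil, at the equivalent of about 0.006 to 0.400 kg/ha, through a nozzle at 40 psi. Plants were kept in the greenhouse and rated visually about two to three weeks after treatment.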

[3] = system: AMBEL Ragweed, Common; test: Preemergence herbicidal evaluation, AMBEL; format: in vivo, Ambrosia artemisifolia, L.; conditions: preemergence
How it was run: as §1

[4] = system: CASOB Sicklepod; test: Postemergence herbicidal evaluation, CASOB; format: in vivo, Cassia obtusifolia, L.; conditions: postemergence spray, rated about two-three weeks after treatment
How it was run: as §2

[5] = system: CHEAL Lambsquarters, Common; test: Preemergence herbicidal evaluation, CHEAL; format: in vivo, Chenopodium album, L.; conditions: preemergence
How it was run: as §1

[6] = system: GLXMAW Soybean, Williams; test: Preemergence herbicidal evaluation, GLXMAW; format: in vivo, Glycine max, (L.) Merr. cv Williams; conditions: preemergence
How it was run: as §1

[7] = system: IPOHE Morningglory, Ivyleaf; test: Preemergence herbicidal evaluation, IPOHE; format: in vivo, Ipomoea hederacea, (L.) Jacq.; conditions: preemergence
How it was run: as §1

[8] = system: AMBEL Ragweed, Common; test: Postemergence herbicidal evaluation, AMBEL; format: in vivo, Ambrosia artemisifolia, L.; conditions: postemergence spray, rated about two-three weeks after treatment
How it was run: as §2

[9] = system: ABUTH Velvetleaf; test: Postemergence herbicidal evaluation, ABUTH; format: in vivo, Abutilon theophrasti, Medic.; conditions: postemergence spray, rated about two-three weeks after treatment
How it was run: as §2

[10] = system: ORYSAT Rice, Tebonnet; test: Preemergence herbicidal evaluation, ORYSAT; format: in vivo, Oryza sativa, (L.); conditions: preemergence
How it was run: as §1

[11] = system: ECHOG Barnyardgrass; test: Preemergence herbicidal evaluation, ECHOG; format: in vivo, Echinochloa crus-galli, (L.) Beau; conditions: preemergence
How it was run: as §1

[12] = system: IPOHE Morningglory, Ivyleaf; test: Postemergence herbicidal evaluation, IPOHE; format: in vivo, Ipomoea hederacea, (L.) Jacq.; conditions: postemergence spray, rated about two-three weeks after treatment
How it was run: as §2

[13] = system: ZEAMX Corn, Field; test: Postemergence herbicidal evaluation, ZEAMX; format: in vivo, Zea mays, L. (Sammel-Bezeichnung); conditions: postemergence spray, rated about two-three weeks after treatment
How it was run: as §2

[14] = system: CHEAL Lambsquarters, Common; test: Postemergence herbicidal evaluation, CHEAL; format: in vivo, Chenopodium album, L.; conditions: postemergence spray, rated about two-three weeks after treatment
How it was run: as §2

[15] = system: SETVI Foxtail, Green; test: Postemergence herbicidal evaluation, SETVI; format: in vivo, Setaria viridis, (L.) Beau; conditions: postemergence spray, rated about two-three weeks after treatment
How it was run: as §2

[16] = system: ORYSAT Rice, Tebonnet; test: Postemergence herbicidal evaluation, ORYSAT; format: in vivo, Oryza sativa, (L.); conditions: postemergence spray, rated about two-three weeks after treatment
How it was run: as §2

[17] = system: ECHOG Barnyardgrass; test: Postemergence herbicidal evaluation, ECHOG; format: in vivo, Echinochloa crus-galli, (L.) Beau; conditions: postemergence spray, rated about two-three weeks after treatment
How it was run: as §2

[18] = system: ABUTH Velvetleaf; test: Preemergence herbicidal evaluation, ABUTH; format: in vivo, Abutilon theophrasti, Medic.; conditions: preemergence
How it was run: as §1

[19] = system: ZEAMX Corn, Field; test: Preemergence herbicidal evaluation, ZEAMX; format: in vivo, Zea mays, L. (Sammel-Bezeichnung); conditions: preemergence
How it was run: as §1

[20] = system: GLXMAW Soybean, Williams; test: Postemergence herbicidal evaluation, GLXMAW; format: in vivo, Glycine max, (L.) Merr. cv Williams; conditions: postemergence spray, rated about two-three weeks after treatment
How it was run: as §2

[21] = system: GALAP Galium; test: Preemergence herbicidal evaluation, GALAP; format: in vivo, Galium aparine; conditions: preemergence
How it was run: as §1

[22] = system: TRZAWR Wheat, Winter, cv Riband; test: Postemergence herbicidal evaluation, TRZAWR; format: in vivo, Triticum aestivum; conditions: postemergence spray, rated about two-three weeks after treatment
How it was run: as §2

[23] = system: TRZAWR Wheat, Winter, cv Riband; test: Preemergence herbicidal evaluation, TRZAWR; format: in vivo, Triticum aestivum; conditions: preemergence
How it was run: as §1

[24] = system: CASOB Sicklepod; test: Preemergence herbicidal evaluation, CASOB; format: in vivo, Cassia obtusifolia, L.; conditions: preemergence
How it was run: as §1

Cc1ccc(OCC(=O)O)cc1-n1nnc2cc(F)c(-n3c(=O)cc(C(F)(F)F)n(C)c3=O)cc21 [Example 37]
SETVI herbicidal rating ([1]; rate 0.016 kg/ha): 0.0 | SETVI herbicidal rating ([1]; rate 0.032 kg/ha): 0.0 | SETVI herbicidal rating ([1]; rate 0.062 kg/ha): 0.0 | SETVI herbicidal rating ([1]; rate 0.125 kg/ha): 8.0 | Postemergence herbicidal rating GALAP ([2]; 0.008 kg/ha): 0.0 | Postemergence herbicidal rating GALAP ([2]; 0.016 kg/ha): 0.0 | Postemergence herbicidal rating GALAP ([2]; 0.032 kg/ha): 0.0 | Postemergence herbicidal rating GALAP ([2]; 0.062 kg/ha): 2.0 | AMBEL herbicidal rating ([3]; rate 0.016 kg/ha): 0.0 | AMBEL herbicidal rating ([3]; rate 0.032 kg/ha): 0.0 | AMBEL herbicidal rating ([3]; rate 0.062 kg/ha): 0.0 | AMBEL herbicidal rating ([3]; rate 0.125 kg/ha): 3.0 | Postemergence herbicidal rating CASOB ([4]; 0.008 kg/ha): 0.0 | Postemergence herbicidal rating CASOB ([4]; 0.016 kg/ha): 0.0 | Postemergence herbicidal rating CASOB ([4]; 0.032 kg/ha): 0.0 | Postemergence herbicidal rating CASOB ([4]; 0.062 kg/ha): 0.0 | CHEAL herbicidal rating ([5]; rate 0.062 kg/ha): 0.0 | CHEAL herbicidal rating ([5]; rate 0.125 kg/ha): 9.0 | GLXMAW herbicidal rating ([6]; rate 0.016 kg/ha): 0.0 | GLXMAW herbicidal rating ([6]; rate 0.032 kg/ha): 0.0 | GLXMAW herbicidal rating ([6]; rate 0.062 kg/ha): 0.0 | GLXMAW herbicidal rating ([6]; rate 0.125 kg/ha): 0.0 | IPOHE herbicidal rating ([7]; rate 0.016 kg/ha): 0.0 | IPOHE herbicidal rating ([7]; rate 0.032 kg/ha): 0.0 | IPOHE herbicidal rating ([7]; rate 0.062 kg/ha): 0.0 | IPOHE herbicidal rating ([7]; rate 0.125 kg/ha): 5.0 | Postemergence herbicidal rating AMBEL ([8]; 0.008 kg/ha): 0.0 | Postemergence herbicidal rating AMBEL ([8]; 0.016 kg/ha): 4.0 | Postemergence herbicidal rating AMBEL ([8]; 0.032 kg/ha): 9.0 | Postemergence herbicidal rating AMBEL ([8]; 0.062 kg/ha): 9.0 | Postemergence herbicidal rating ABUTH ([9]; 0.008 kg/ha): 0.0 | Postemergence herbicidal rating ABUTH ([9]; 0.016 kg/ha): 3.0 | Postemergence herbicidal rating ABUTH ([9]; 0.032 kg/ha): 5.0 | Postemergence herbicidal rating ABUTH ([9]; 0.062 kg/ha): 9.0 | ORYSAT herbicidal rating ([10]; rate 0.016 kg/ha): 0.0 | ORYSAT herbicidal rating ([10]; rate 0.032 kg/ha): 0.0 | ORYSAT herbicidal rating ([10]; rate 0.062 kg/ha): 0.0 | ORYSAT herbicidal rating ([10]; rate 0.125 kg/ha): 0.0 | ECHCG herbicidal rating ([11]; rate 0.016 kg/ha): 0.0 | ECHCG herbicidal rating ([11]; rate 0.032 kg/ha): 0.0 | ECHCG herbicidal rating ([11]; rate 0.062 kg/ha): 0.0 | ECHCG herbicidal rating ([11]; rate 0.125 kg/ha): 0.0 | Postemergence herbicidal rating IPOHE ([12]; 0.008 kg/ha): 3.0 | Postemergence herbicidal rating IPOHE ([12]; 0.016 kg/ha): 9.0 | Postemergence herbicidal rating IPOHE ([12]; 0.032 kg/ha): 9.0 | Postemergence herbicidal rating IPOHE ([12]; 0.062 kg/ha): 9.0 | Postemergence herbicidal rating ZEAMX ([13]; 0.008 kg/ha): 7.0 | Postemergence herbicidal rating ZEAMX ([13]; 0.016 kg/ha): 7.5 | Postemergence herbicidal rating ZEAMX ([13]; 0.032 kg/ha): 7.5 | Postemergence herbicidal rating ZEAMX ([13]; 0.062 kg/ha): 8.0 | Postemergence herbicidal rating CHEAL ([14]; 0.008 kg/ha): 0.0 | Postemergence herbicidal rating CHEAL ([14]; 0.016 kg/ha): 0.0 | Postemergence herbicidal rating CHEAL ([14]; 0.032 kg/ha): 4.0 | Postemergence herbicidal rating CHEAL ([14]; 0.062 kg/ha): 4.0 | Postemergence herbicidal rating SETVI ([15]; 0.008 kg/ha): 0.0 | Postemergence herbicidal rating SETVI ([15]; 0.016 kg/ha): 0.0 | Postemergence herbicidal rating SETVI ([15]; 0.032 kg/ha): 7.0 | Postemergence herbicidal rating SETVI ([15]; 0.062 kg/ha): 9.0 | Postemergence herbicidal rating ORYSAT ([16]; 0.008 kg/ha): 0.5 | Postemergence herbicidal rating ORYSAT ([16]; 0.016 kg/ha): 1.0 | Postemergence herbicidal rating ORYSAT ([16]; 0.032 kg/ha): 3.5 | Postemergence herbicidal rating ORYSAT ([16]; 0.062 kg/ha): 7.5 | Postemergence herbicidal rating ECHCG ([17]; 0.008 kg/ha): 0.0 | Postemergence herbicidal rating ECHCG ([17]; 0.016 kg/ha): 0.0 | Postemergence herbicidal rating ECHCG ([17]; 0.032 kg/ha): 2.0 | Postemergence herbicidal rating ECHCG ([17]; 0.062 kg/ha): 3.0 | ABUTH herbicidal rating ([18]; rate 0.016 kg/ha): 0.0 | ABUTH herbicidal rating ([18]; rate 0.032 kg/ha): 0.0 | ABUTH herbicidal rating ([18]; rate 0.062 kg/ha): 9.0 | ABUTH herbicidal rating ([18]; rate 0.125 kg/ha): 9.0 | ZEAMX herbicidal rating ([19]; rate 0.016 kg/ha): 0.0 | ZEAMX herbicidal rating ([19]; rate 0.032 kg/ha): 0.0 | ZEAMX herbicidal rating ([19]; rate 0.062 kg/ha): 0.0 | ZEAMX herbicidal rating ([19]; rate 0.125 kg/ha): 0.0 | Postemergence herbicidal rating GLXMAW ([20]; 0.008 kg/ha): 3.5 | Postemergence herbicidal rating GLXMAW ([20]; 0.016 kg/ha): 4.0 | Postemergence herbicidal rating GLXMAW ([20]; 0.032 kg/ha): 6.5 | Postemergence herbicidal rating GLXMAW ([20]; 0.062 kg/ha): 7.0 | GALAP herbicidal rating ([21]; rate 0.016 kg/ha): 0.0 | GALAP herbicidal rating ([21]; rate 0.032 kg/ha): 0.0 | GALAP herbicidal rating ([21]; rate 0.062 kg/ha): 0.0 | GALAP herbicidal rating ([21]; rate 0.125 kg/ha): 0.0 | Postemergence herbicidal rating TRZAWR ([22]; 0.008 kg/ha): 3.5 | Postemergence herbicidal rating TRZAWR ([22]; 0.016 kg/ha): 5.5 | Postemergence herbicidal rating TRZAWR ([22]; 0.032 kg/ha): 5.5 | Postemergence herbicidal rating TRZAWR ([22]; 0.062 kg/ha): 7.0 | TRZAWR herbicidal rating ([23]; rate 0.016 kg/ha): 0.0 | TRZAWR herbicidal rating ([23]; rate 0.032 kg/ha): 0.0 | TRZAWR herbicidal rating ([23]; rate 0.062 kg/ha): 0.0 | TRZAWR herbicidal rating ([23]; rate 0.125 kg/ha): 0.0 | CASOB herbicidal rating ([24]; rate 0.016 kg/ha): 0.0 | CASOB herbicidal rating ([24]; rate 0.032 kg/ha): 0.0 | CASOB herbicidal rating ([24]; rate 0.062 kg/ha): 0.0 | CASOB herbicidal rating ([24]; rate 0.125 kg/ha): 0.0
